Measured values taken from US12384923B2, “Method of treatment of a surface” (Conopco, Inc., priority 2018, dated 2025).

System: Raphidocelis subcapitata
Assay: Algal growth inhibition by lactam (absorbance at 680 nm of algal cultures in 6-well plates)
Type: cell-based
Protocol: The freshwater algae Raphidocelis subcapitata was purchased from Culture Collection of Algae and Protozoa (CCAP 278/4). The algae was cultivated in commercial Gibco BG-11 Media. A bespoke built UV exposure cabinet was used for cultivation. The UV bulbs were replaced by light bulbs (Osram L 8W I535 white). The experiments were performed in sterile 6-well microtiter plates made from polystyrene under static conditions and room temperature. The light-dark cycle was 9 h dark and 15 h light. The quantification was done spectrophotometrically in the 6-well plate by using absorbance measurements. A wavelength scan was done to measure the absorbance maximum of the algaea. […] Since the algaea tend to sediment the plate was obitally shaken to bring the cells in suspension before measuring. Measuring was performed using a Varioscan plate reader for microtiter plates.
In this experiment, the algal cultures were treated with lactam at levels of 10 μM to 200 μM as well as two control plates, one untreated, and one treated with solvent (DMSO) only. The specific levels of lactam measured were 10 μM, 20 μM, 30 μM, 40 μM, 50 μM, 100 μM, 150 μM, 200 μM would equate to levels of from 2 ppm (10 μM) to 40 ppm (200 μM), and to wt. % of 0.0002 wt. % (10 μM) to 0.004 wt. % (200 μM). The lactam was provided in a DMSO solvent to the plates. The rate of growth of the algal culture was measured after 12 days by absorbance value.
In this experiment, the algal cultures were treated with lactam at levels of 0.01 μM to 10 μM as well as two control plates, one untreated, and one treated with solvent (DMSO) only. The specific levels of lactam measured were 0.01 μM, 0.1 μM, 1 μM, 10 μM, this would equate to levels of from 0.002 ppm also defined as 2 ppb (0.01 μM) to 2 ppm (10 μM), and to wt. % of 0.0000002 wt. % (0.01 μM) to 0.0002 wt. % (10 μM). The lactam was provided in a DMSO solvent to the plates. The rate of growth of the algal culture was measured after 6 days by absorbance value.

C=C1NC(=O)C=C1c1ccc(Cl)cc1 [4-(4-chlorophenyl)-5-methylene-pyrrol-2-one]
0.8: Absorbance (680 nm) (Example 3, lactam 0.01 μM, after 6 days)
very effective algal growth inhibition: algal growth inhibition (in words) (Example 2, lactam level of 10 μM (0.0002 wt. %) and above, 12 days) | algal growth inhibition (in words) (Example 3, lactam level of 10 μM (0.0002 wt. %) and above, 6 days)
0.9: Absorbance (680 nm) (Example 3, lactam 0.1 μM, after 6 days) | Absorbance (680 nm) (Example 3, lactam 1 μM, after 6 days)
no algal growth inhibition was seen: algal growth inhibition (in words) (Example 3, lactam 1 μM, 6 days) | algal growth inhibition (in words) (Example 3, lactam amount even lower than 1 μM (0.1 μM, 0.01 μM), 6 days)
0.1: Absorbance (680 nm) (Example 2, lactam 10 μM, after 12 days) | Absorbance (680 nm) (Example 2, lactam 20 μM, after 12 days) | Absorbance (680 nm) (Example 2, lactam 30 μM, after 12 days) | Absorbance (680 nm) (Example 2, lactam 40 μM, after 12 days) | Absorbance (680 nm) (Example 2, lactam 50 μM, after 12 days) | Absorbance (680 nm) (Example 2, lactam 100 μM, after 12 days) | Absorbance (680 nm) (Example 2, lactam 150 μM, after 12 days) | Absorbance (680 nm) (Example 2, lactam 200 μM, after 12 days) | Absorbance (680 nm) (Example 3, lactam 10 μM, after 6 days)
